Experimental data reported in patent US11291627B1 (Ocular Therapeutix, Inc., priority 2020, dated 2022).
Read-outs that look alike come from different tables or passages of the source.

Tests used:
[1] = 0.7 mg dose SAZ insert, beagles
[2] = cyclosporine specification provided by the supplier; cited from earlier work
[3] = Example 3.2 proof-of-concept PK study: cyclosporine tear fluid concentration and drug released, beagles (Table 3.2); type: in vivo, beagle dogs; conditions: 0.44 mg dose SG insert, over 32 days, assuming consistent daily release
From the text: Inserts were removed at 32 days to determine the amount of remaining drug compared to the administered dose.

**Q.** Which “average amount of cyclosporine released in 6 weeks” value ([1]; inserts removed at 6 weeks) does the source give for `CC=CCC(C)C(O)C1C(=O)NC(CC)C(=O)N(C)CC(=O)N(C)C(CC(C)C)C(=O)NC(C(C)C)C(=O)N(C)C(CC(C)C)C(=O)NC(C)C(=O)NC(C)C(=O)N(C)C(CC(C)C)C(=O)N(C)C(CC(C)C)C(=O)N(C)C(C(C)C)C(=O)N1C` (stereo not drawn) [Cyclosporine, 30-ethyl-33-(1-hydroxy-2-methylhex-4-enyl)-1,4,7,10,12,15,19,25,28-nonamethyl-6,9,18,24-tetrakis(2-methylpropyl)-3,21-di(propan-2-yl)-1,4,7,10,13,16,19,22,25,28,31-undecazacyclotritriacontane-2,5,8,11,14,17,20,23,26,29,32-undecone] here?
**A.** Its value is 0.37 mg.

**Q.** And the “estimated daily delivered dose” value ([1]; over 6 weeks, assuming consistent daily release)?
**A.** Its value is 8.8 µg/day.

**Q.** What about the D10 [2] of the same compound?
**A.** The D10 was 0.5 μm.

**Q.** What about the D50 [2] of the same compound?
**A.** The D50 was 2.1 μm.

**Q.** And the D90 [2]?
**A.** The D90 was 7.5 μm.

**Q.** What about the “estimated daily delivered dose” value [3] of the same compound?
**A.** The value was 6.3 µg/day.
